Where no end group is shown, it is not given here.
Test system: APC protein
Test: Precipitation of APC from human colon cancer cell line lysates with biotinylated probe and streptavidin particles
Type: binding
Conditions: Western blot with APC antibody
Protocol: Precipitation experiments were carried out in order to determine whether the anti-APCp1 polypeptide probe was capable of detecting the low in vivo levels of APC which are typically present in normal and tumor cells. FIG. 7 is a schematic representation of the strategy used. Briefly, cell lines which produce a normal (i.e., full length human APC) and mutant (i.e., truncated human APC) were lysed, and the lysate combined with either biotinylated […] or biotinylated anti-APC monoclonal antibody. Molecules bound to the biotinylated probes were collected by binding to streptavidin, and the bound molecules released from the beads followed by SDS-PAGE, blotting of the gels, and detection with a biotinylated APC antibody. […] was detected on X-ray film. These steps are elaborated in more detail as follows.
Cells were harvested at 90-100% confluency. Cells were washed twice with ice-cold Dulbecco's phosphate buffered saline (Gibco BRL) containing magnesium chloride and calcium chloride, scraped into 15 mL ice cold D-PBS and pelleted in a Beckman J-6 centrifuge for 5 minutes at 4° C. The cell pellet was resuspended in 1 mL ice-cold phosphate buffer, pH 8, containing 0.2% NP-40, 400 μg/mL of Pefabloc SC (Boehringer Mannheim) and 10 μg/mL each of leupeptin, pepstatin, and aprotinin. […]

Sequence of APC protein (P25054 2-55 limits assumed): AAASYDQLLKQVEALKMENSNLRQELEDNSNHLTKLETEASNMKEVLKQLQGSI

How did the “binding to / precipitation of wild-type and mutant APC at endogenous cell concentrations” value turn out when “biotinylated-anti-APCp1: N-terminally biotinylated anti-APCp1 with Met, an additional Leu8Val mutation and Glu-Asp-Glu at the C-terminus (MAAKGDQVKKEVEALEYENSNLRKKLEDHKKKLTKLKTEISNAKKMLKQLYASIEDE; not fully specified (N-terminus); also: biotin attached via a long spacer arm)” was run?
Its value is “precipitated truncation mutants and full-length APC at endogenous cell concentrations”.

— patent publication US6303317A, “Peptide probes and methods for making the same” (The Regents of the University of California, priority 1998, dated 2001)
